Measured values: publication PMC4613240, “A Series of New Ligustrazine-Triterpenes Derivatives as Anti-Tumor Agents: Design, Synthesis, and Biological Evaluation” (International Journal of Molecular Sciences, 2015)

Key:
[1] = system: Bel-7402 (human hepatocellular carcinoma); assay: MTT cytotoxicity assay, Bel-7402; assay type: cell-based; conditions: Homo sapiens, Bel-7402, 72 h, maximal tested concentration 20.0 μM
Description: (§1) The cytotoxicity of ligustrazine-triterpenes derivatives was evaluated on five tumor cell lines (Bel-7402, HepG2, HT-29, Hela, and MCF-7) using the standard MTT assay. In the study, the antineoplastic drug cisplatin (DDP) was selected as the positive control. The MDCK cell line was used to test the toxicity of the ligustrazine-triterpenes derivatives and DDP.
(§2) The cell lines Bel-7402 (human hepatocellular carcinoma), HepG2 (human hepatocellular carcinoma), HT-29 (human colon carcinoma), Hela (human cervical cancer), MCF-7 (human breast cancer) were included in this study. All these cell lines were provided by the Chinese Academy of Medical Sciences & Peking Union Medical College. Cultures were maintained as monolayers in RPMI 1640 supplemented with 10% (v/v) heat inactivated fetal bovine serum and 1% (v/v) enicillin/streptomycin (Thermo Technologies, New York, NY, USA) at 37 °C in a humidified atmosphere with 5% CO2. The ligustrazine derivatives under study were dissolved in DMSO (Sigma, St. Louis, MO, USA) and added at required concentrations to the cell culture. Cells incubated without the preparations served as the control.
(§3) The cytotoxicity of the compounds was evaluated on five cancer cell lines (Bel-7402, HepG2, HT-29, Hela, MCF-7) by the standard MTT assay. In short, exponentially growing cells were seeded into 96-well plates at a density 10^4 cells/mL. The plates were incubated at 37 °C in a humidified 5% CO2 atmosphere. Cells were allowed to adhere to the surface for 24 h and then treated with serial dilutions of the compounds for 72 h. Later, aliquots of [3-(4,5-dimethylthiazol-2-yl)-2,5-diphenyltetrazolium bromide] (MTT) solution (20 μL, 5 mg/mL) were added to each well and the incubation was continued for an additional 4 h. Then the supernatant medium was thrown away. The dark blue formazan crystals formed within the healthy cells were solubilized with DMSO (150 μL) and the absorbance was measured in a plate reader (BIORAD 550 spectrophotometer, Bio-rad Life Science Development Ltd., Beijing, China) at 490 nm. Wells containing no drugs were used as control group. The IC50 values were defined as the concentration of compounds that produced a 50% reduction of surviving cells and calculated using Logit-method. Tumor cell growth inhibitory rate was calculated in the following Equation (1): % inhibition = (1 − Sample group OD/Control group OD) × 100% (1)

[2] = system: HT-29 (human colon carcinoma); assay: MTT cytotoxicity assay, HT-29; assay type: cell-based; conditions: Homo sapiens, HT-29, 72 h, maximal tested concentration 20.0 μM
Description: as §1, §2, §3

[3] = system: Madin-Darby canine kidney cell line (MDCK); assay: MTT cytotoxicity (nephrotoxicity/selectivity) assay, MDCK; assay type: cell-based; conditions: Canis lupus familiaris, maximal tested concentration 20.0 μM, toxicity to MDCK kidney cells
[4] = system: MCF-7 (human breast cancer); assay: MTT cytotoxicity assay, MCF-7; assay type: cell-based; conditions: Homo sapiens, MCF7, 72 h, maximal tested concentration 20.0 μM
Description: as §1, §2, §3

[5] = system: HepG2 (human hepatocellular carcinoma); assay: MTT cytotoxicity assay, HepG2; assay type: cell-based; conditions: Homo sapiens, HepG2, 72 h, 72 h, maximal tested concentration 20.0 μM
Description: as §1, §2, §3

[6] = system: Hela (human cervical cancer); assay: MTT cytotoxicity assay, Hela; assay type: cell-based; conditions: Homo sapiens, HeLa, 72 h, maximal tested concentration 20.0 μM
Description: as §1, §2, §3

Row | Compound | IC50 [1] [µM] | IC50 [2] [µM] | IC50 [3] [µM] | IC50 [4] [µM] | IC50 [5] [µM] | melting point [°C] | IC50 [6] [µM]
1 | Cc1nc(C)c(C(=O)OC2CCC3(C)C(CCC4(C)C3CC=C3C5C(C)C(C)CCC5(C(=O)O)CCC34C)C2(C)C)nc1C (stereo not drawn) [Compound 2d, 3β-Hydroxyurs-(3,5,6-trimethylpyrazin-2-carbonyl)-12-en-28-oic acid] | 10.1 | 9.7 | > 20 | 9.49 | > 20 | 305.9 to 306.6 | 9.66
2 | Cc1nc(C)c(C)nc1C [TMP, ligustrazine] | > 20 | > 20 |  | > 20 | > 20 |  | > 20
3 | Cc1nc(C)c(COC(=O)[C@@]2(C)CC[C@]3(C)CC[C@]4(C)C(=CC(=O)C5[C@@]6(C)CC[C@H](O)C(C)(C)C6CC[C@]54C)C3C2)nc1C (some centres unmarked) [Compound 3a, 3-Hydroxy-11-oxoolean-12-en-30-oic acid-3,5,6-trimethylpyrazin-2-methyl ester] | > 20 | 19.9 | > 20 | > 20 | > 20 |  | 11.2
4 | C=C(C)[C@@H]1CC[C@]2(C(=O)O)CC[C@]3(C)[C@H](CC[C@@H]4[C@@]5(C)CC[C@H](O)C(C)(C)[C@@H]5CC[C@]43C)[C@@H]12 [BA, betulinic acid, reference compound] | > 20 | > 20 |  | > 20 | > 20 |  | > 20
5 | C[C@H]1[C@H](C)CC[C@]2(C(=O)O)CC[C@]3(C)C(=CC[C@@H]4[C@@]5(C)CC[C@H](O)C(C)(C)[C@@H]5CC[C@]43C)[C@H]12 [UA, ursolic acid, reference compound] | > 20 | > 20 |  | > 20 | > 20 |  | > 20
6 | C=C(C)C1CCC2(C(=O)OCc3ccccc3)CCC3(C)C(CCC4C5(C)CCC(OC(=O)c6nc(C)c(C)nc6C)C(C)(C)C5CCC43C)C12 (stereo not drawn) [Compound 4c, 3β-Hydroxy-(3,5,6-trimethylpyrazin-2-carbonyl)-lup-20(29)-ene-28-oic acid-benzyl ester] | > 20 | > 20 |  | > 20 | > 20 | 162.1 to 162.8 | > 20
7 | Cc1nc(C)c(C(=O)OC2CCC3(C)C(CCC4(C)C3CC=C3C5C(C)C(C)CCC5(C(=O)OCc5ccccc5)CCC34C)C2(C)C)nc1C (stereo not drawn) [Compound 2c, 3β-Hydroxyurs-(3,5,6-trimethylpyrazin-2-carbonyl)-12-en-28-oic acid-benzyl ester] | > 20 | > 20 |  | > 20 | > 20 | 218.5 to 219.3 | > 20
8 | Cc1nc(C)c(COC(=O)[C@]23CC[C@@H](C)[C@H](C)C2C2=CCC4[C@@]5(C)CC[C@H](OC(=O)c6nc(C)c(C)nc6C)C(C)(C)C5CC[C@@]4(C)[C@]2(C)CC3)nc1C (stereo partly drawn) [Compound 2b, 3β-Hydroxyurs-(3,5,6-trimethylpyrazin-2-carbonyl)-12-en-28-oic acid-3,5,6-trimethylpyrazin-2-methyl ester] | > 20 | > 20 |  | > 20 | > 20 | 168.2 to 168.9 | > 20
9 | Cc1nc(C)c(COC(=O)[C@]23CC[C@@H](C)[C@H](C)C2C2=CCC4[C@@]5(C)CC[C@H](O)C(C)(C)C5CC[C@@]4(C)[C@]2(C)CC3)nc1C (stereo partly drawn) [Compound 2a, 3β-Hydroxyurs-12-en-28-oic acid-3,5,6-trimethylpyrazin-2-methyl ester] | 8.01 | 17.6 | > 20 | > 20 | > 20 | 125.9 to 126.7 | 20
